Literature values in patent publication US20080085858A1, “Pharmaceutical Composition” (KYOWA HAKKO KOGYO CO., LTD., priority 2004, published 2008).

Experiments:
[1] = tested on: delayed-type allergic reaction in the skin; conditions: animal model; Non-patent Document 1
[2] = tested on: chronic dermatitis models; conditions: Non-patent Document 2

## COc1ccc([C@]2(C#N)CC[C@@H](C(=O)O)CC2)cc1OC1CCCC1 [SB207499]
[1]
  Effect on delayed-type allergic reaction in the skin: inhibit a delayed-type allergic reaction in the skin
[2]
  Therapeutic effects on chronic dermatitis models: exhibit therapeutic effects on chronic dermatitis models
